Test: Antagonist activity at CCR4 in mouse Treg cells assessed as inhibition of CCL22-mediated chemotaxis preincubated for 30 mins followed by CCL22 addition and measured after 60 mins in presence of 100% mouse serum by CellTiter-Glo assay

Row | IC50 [nM] | SMILES
1 | 39 | C[C@H](c1ccc(Cl)cc1Cl)n1nc(C#N)c2ncc(N3CC([C@H]4CCCN(CCO)C4)C3)nc21

Test: Antagonist activity at CCR4 in human Treg cells assessed as inhibition of CCL22-mediated chemotaxis preincubated for 30 mins followed by CCL22 addition and measured after 60 mins in presence of 100% human serum by CellTiter-Glo assay

Row | IC50 [nM] | SMILES
2 | 33 | C[C@H](c1ccc(Cl)cc1Cl)n1nc(C#N)c2ncc(N3CC([C@H]4CCCN(CCO)C4)C3)nc21

Test: Antagonist activity at CCR4 in human CCRF-CEM cells assessed as inhibition of CCL22-mediated chemotaxis preincubated for 30 mins followed by CCL22 addition and measured after 60 mins in presence of 100% human serum by CellTiter-Glo assay

Row | SMILES | IC50 [nM]
3 | Cc1nn([C@H](C)c2ccc(Cl)cc2Cl)c2nc(N3CC([C@H]4CCCN(CCS(N)(=O)=O)C4)C3)cnc12 | 717
4 | Cc1nn([C@H](C)c2ccc(Cl)cc2Cl)c2nc(N3CC([C@H]4CCCN(CCS(C)(=O)=O)C4)C3)cnc12 | 575
5 | Cc1nn([C@H](C)c2ccc(Cl)cc2Cl)c2nc(N3CC([C@H]4CCCN(CCCS(C)(=O)=O)C4)C3)cnc12 | 259
6 | Cc1nn([C@H](C)c2ccc(Cl)cc2Cl)c2nc(N3CC([C@H]4CCCN(CCCC(=O)O)C4)C3)cnc12 | 559
7 | C[C@H](c1ccc(Cl)cc1Cl)n1nc(C#N)c2ncc(N3CC([C@H]4CCCN(CC(=O)O)C4)C3)nc21 | 775
8 | Cc1nn([C@H](C)c2ccc(Cl)cc2Cl)c2nc(N3CC([C@H]4CCCN(CCC(N)=O)C4)C3)cnc12 | 247
9 | CC(=O)NCCN1CCC[C@H](C2CN(c3cnc4c(C)nn([C@H](C)c5ccc(Cl)cc5Cl)c4n3)C2)C1 | 40
10 | C[C@H](c1ccc(Cl)cc1Cl)n1nc(C#N)c2ncc(N3CC([C@H]4CCCN(CCC(F)(F)F)C4)C3)nc21 | 1500
11 | Cc1nn([C@H](C)c2ccc(Cl)cc2Cl)c2nc(N3CC([C@H]4CCCN(CCCO)C4)C3)cnc12 | 109
12 | Cc1nn([C@H](C)c2ccc(Cl)cc2Cl)c2nc(N3CC([C@H]4CCCN(CCO)C4)C3)cnc12 | 74
13 | C[C@H](c1ccc(Cl)cc1Cl)n1nc(C(=O)N(C)C)c2ncc(N3CC([C@H]4CCCN(CCO)C4)C3)nc21 | 379

Results, then the compound that gave them:

Row | IC50 [nM] | SMILES
14 | 136 | Cc1nn([C@H](C)c2ccc(Cl)cc2Cl)c2nc(N3CC([C@H]4CCCN(CCNS(C)(=O)=O)C4)C3)cnc12
15 | 115 | Cc1nn([C@H](C)c2ccc(Cl)cc2Cl)c2nc(N3CC([C@H]4CCCN(CCNS(=O)(=O)C(C)C)C4)C3)cnc12
16 | 370 | Cc1nn([C@H](C)c2ccc(Cl)cc2Cl)c2nc(N3CC([C@H]4CCCN(CCC(=O)O)C4)C3)cnc12
17 | 409 | C[C@H](c1ccc(Cl)cc1Cl)n1nc(C#N)c2ncc(N3CC([C@H]4CCCN(CCC(=O)O)C4)C3)nc21
18 | 59 | Cc1nn([C@H](C)c2ccc(Cl)cc2Cl)c2nc(N3CC([C@H]4CCCN(CCNC(=O)C(C)C)C4)C3)cnc12
19 | 133 | COC(=O)NCCN1CCC[C@H](C2CN(c3cnc4c(C)nn([C@H](C)c5ccc(Cl)cc5Cl)c4n3)C2)C1
20 | 97 | C[C@H](c1ccc(Cl)cc1Cl)n1nc(C#N)c2ncc(N3CC([C@H]4CCCN(Cc5cnc[nH]5)C4)C3)nc21
21 | 523 | C[C@H](c1ccc(Cl)cc1Cl)n1nc(C#N)c2ncc(N3CC([C@H]4CCCN(CCC#N)C4)C3)nc21
22 | 50 | C[C@H](c1ccc(Cl)cc1Cl)n1nc(C#N)c2ncc(N3CC([C@H]4CCCN(CCO)C4)C3)nc21
23 | 36 | C[C@H](c1ccc(Cl)cc1Cl)n1nc(C(N)=O)c2ncc(N3CC([C@H]4CCCN(CCO)C4)C3)nc21
24 | 446 | CNC(=O)c1nn([C@H](C)c2ccc(Cl)cc2Cl)c2nc(N3CC([C@H]4CCCN(CCO)C4)C3)cnc12

Test: Antagonist activity at CCR4 in human CCRF-CEM cells assessed as inhibition of CCL17-mediated chemotaxis preincubated for 30 mins followed by CCL17 addition and measured after 60 mins in presence of 100% human serum by CellTiter-Glo assay

Row | IC50 [nM] | SMILES
25 | 64 | C[C@H](c1ccc(Cl)cc1Cl)n1nc(C#N)c2ncc(N3CC([C@H]4CCCN(CCO)C4)C3)nc21

Source: BindingDB's records for doi:10.1021/acs.jmedchem.0c00988 (Rapt Therapeutics, 2020)
